{"source": "patent US20190276872A1", "about": "“DETERMINATION OF INTERFERENTS IN A SAMPLE” (Roche Diagnostics Operations, Inc., priority 2016, published 2019)", "key": {"Normal plasma pool [1]": {"test_system": "Normal plasma pool", "test": "APTT assay (Roche APTT LS on Roche cobas t 711 coagulation analyzer), spiked normal plasma pool", "conditions": "for effect of spiked amount on clotting time of APTT assay: increasing concentrations, normal plasma sample; for APTT result: normal plasma pool"}, "Normal plasma pool [2]": {"test_system": "Normal plasma pool", "test": "Thrombin time assay (Roche Thrombin Time Reagent on Roche cobas t 711), spiked normal plasma pool", "conditions": "for effect of spiked amount on clotting time of thrombin time (TT) assay: increasing concentrations, normal plasma sample; for TT result: normal plasma pool"}, "pathological plasma pool": {"test_system": "pathological plasma pool", "test": "Thrombin time assay (Roche Thrombin Time Reagent on Roche cobas t 711), spiked pathological plasma pool", "conditions": "for TT result: pathological plasma pool", "procedure": "[The source words this procedure for another target and reports this target under the same test.] A TT result of 19 s would result in a conjugated bilirubin concentration x=4.95 mg/dL. The calibration curve shown above was generated by spiking increasing amount of bilic to a normal plasma sample."}}}
{"compound": "C=CC1=C(C)/C(=C/c2[nH]c(Cc3[nH]c(/C=C4\\NC(=O)C(C)=C4C=C)c(C)c3CCC(=O)O)c(CCC(=O)O)c2C)NC1=O", "note": "[unconjugated bilirubin]", "values": [{"measurement": "effect of spiked amount on clotting time of APTT assay", "setting": "Normal plasma pool [1]", "value": "influences APTT results only marginally"}, {"measurement": "APTT result", "setting": "Normal plasma pool [1]; spiked at 6.60 mg/dL", "value": 30.70, "unit": "s"}, {"measurement": "APTT result", "setting": "Normal plasma pool [1]; spiked at 13.20 mg/dL", "value": 31.10, "unit": "s"}, {"measurement": "APTT result", "setting": "Normal plasma pool [1]; spiked at 19.80 mg/dL", "value": 30.80, "unit": "s"}, {"measurement": "APTT result", "setting": "Normal plasma pool [1]; spiked at 26.40 mg/dL", "value": 30.80, "unit": "s"}, {"measurement": "APTT result", "setting": "Normal plasma pool [1]; spiked at 33.00 mg/dL", "value": 30.70, "unit": "s"}, {"measurement": "APTT result", "setting": "Normal plasma pool [1]; spiked at 39.60 mg/dL", "value": 30.50, "unit": "s"}, {"measurement": "APTT result", "setting": "Normal plasma pool [1]; spiked at 46.20 mg/dL", "value": 30.50, "unit": "s"}, {"measurement": "APTT result", "setting": "Normal plasma pool [1]; spiked at 52.80 mg/dL", "value": 30.30, "unit": "s"}, {"measurement": "APTT result", "setting": "Normal plasma pool [1]; spiked at 59.40 mg/dL", "value": 30.60, "unit": "s"}, {"measurement": "APTT result", "setting": "Normal plasma pool [1]; spiked at 66.00 mg/dL", "value": 30.30, "unit": "s"}, {"measurement": "effect of spiked amount on clotting time of thrombin time (TT) assay", "setting": "Normal plasma pool [2]", "value": "does not seem to influence thrombin time results"}, {"measurement": "TT result", "setting": "Normal plasma pool [2]; spiked at 6.60 mg/dL", "value": 16.30, "unit": "s"}, {"measurement": "TT result", "setting": "Normal plasma pool [2]; spiked at 13.20 mg/dL", "value": 16.30, "unit": "s"}, {"measurement": "TT result", "setting": "Normal plasma pool [2]; spiked at 19.80 mg/dL", "value": 16.00, "unit": "s"}, {"measurement": "TT result", "setting": "Normal plasma pool [2]; spiked at 26.40 mg/dL", "value": 16.40, "unit": "s"}, {"measurement": "TT result", "setting": "Normal plasma pool [2]; spiked at 33.00 mg/dL", "value": 16.40, "unit": "s"}, {"measurement": "TT result", "setting": "Normal plasma pool [2]; spiked at 39.60 mg/dL", "value": 16.40, "unit": "s"}, {"measurement": "TT result", "setting": "Normal plasma pool [2]; spiked at 46.20 mg/dL", "value": 16.40, "unit": "s"}, {"measurement": "TT result", "setting": "Normal plasma pool [2]; spiked at 52.80 mg/dL", "value": 16.60, "unit": "s"}, {"measurement": "TT result", "setting": "Normal plasma pool [2]; spiked at 59.40 mg/dL", "value": 16.50, "unit": "s"}, {"measurement": "TT result", "setting": "Normal plasma pool [2]; spiked at 66.00 mg/dL", "value": 16.60, "unit": "s"}]}
{"compound": "conjugated bilirubin", "values": [{"measurement": "effect of spiked amount on clotting time of APTT assay", "setting": "Normal plasma pool [1]", "value": "systematically prolonged"}, {"measurement": "APTT result", "setting": "Normal plasma pool [1]; spiked at 2.00 mg/dL", "value": 27.90, "unit": "s"}, {"measurement": "APTT result", "setting": "Normal plasma pool [1]; spiked at 4.00 mg/dL", "value": 28.40, "unit": "s"}, {"measurement": "APTT result", "setting": "Normal plasma pool [1]; spiked at 6.00 mg/dL", "value": 29.00, "unit": "s"}, {"measurement": "APTT result", "setting": "Normal plasma pool [1]; spiked at 8.00 mg/dL", "value": 29.70, "unit": "s"}, {"measurement": "APTT result", "setting": "Normal plasma pool [1]; spiked at 9.00 mg/dL", "value": 30.00, "unit": "s"}, {"measurement": "APTT result", "setting": "Normal plasma pool [1]; spiked at 10.00 mg/dL", "value": 30.50, "unit": "s"}, {"measurement": "APTT result", "setting": "Normal plasma pool [1]; spiked at 11.00 mg/dL", "value": 30.70, "unit": "s"}, {"measurement": "APTT result", "setting": "Normal plasma pool [1]; spiked at 12.00 mg/dL", "value": 31.10, "unit": "s"}, {"measurement": "APTT result", "setting": "Normal plasma pool [1]; spiked at 13.00 mg/dL", "value": 31.50, "unit": "s"}, {"measurement": "APTT result", "setting": "Normal plasma pool [1]; spiked at 15.00 mg/dL", "value": 32.20, "unit": "s"}, {"measurement": "effect of spiked amount on clotting time of thrombin time (TT) assay", "setting": "Normal plasma pool [2]", "value": "systematically prolonged"}, {"measurement": "TT result", "setting": "Normal plasma pool [2]; spiked at 1.00 mg/dL", "value": 16.70, "unit": "s"}, {"measurement": "TT result", "setting": "Normal plasma pool [2]; spiked at 2.00 mg/dL", "value": 17.40, "unit": "s"}, {"measurement": "TT result", "setting": "Normal plasma pool [2]; spiked at 3.00 mg/dL", "value": 17.80, "unit": "s"}, {"measurement": "TT result", "setting": "Normal plasma pool [2]; spiked at 4.00 mg/dL", "value": 18.50, "unit": "s"}, {"measurement": "TT result", "setting": "Normal plasma pool [2]; spiked at 5.00 mg/dL", "value": 19.20, "unit": "s"}, {"measurement": "TT result", "setting": "Normal plasma pool [2]; spiked at 6.00 mg/dL", "value": 19.50, "unit": "s"}, {"measurement": "TT result", "setting": "Normal plasma pool [2]; spiked at 7.00 mg/dL", "value": 20.00, "unit": "s"}, {"measurement": "TT result", "setting": "Normal plasma pool [2]; spiked at 8.00 mg/dL", "value": 20.50, "unit": "s"}, {"measurement": "TT result", "setting": "Normal plasma pool [2]; spiked at 9.00 mg/dL", "value": 21.30, "unit": "s"}, {"measurement": "TT result", "setting": "Normal plasma pool [2]; spiked at 10.00 mg/dL", "value": 21.70, "unit": "s"}]}
{"compound": "hemoglobin", "values": [{"measurement": "effect of spiked amount on clotting time of APTT assay", "setting": "Normal plasma pool [1]", "value": "systematically shortened"}, {"measurement": "APTT result", "setting": "Normal plasma pool [1]; spiked at 130.00 mg/dL", "value": 28.40, "unit": "s"}, {"measurement": "APTT result", "setting": "Normal plasma pool [1]; spiked at 260.00 mg/dL", "value": 28.10, "unit": "s"}, {"measurement": "APTT result", "setting": "Normal plasma pool [1]; spiked at 390.00 mg/dL", "value": 27.90, "unit": "s"}, {"measurement": "APTT result", "setting": "Normal plasma pool [1]; spiked at 520.00 mg/dL", "value": 27.60, "unit": "s"}, {"measurement": "APTT result", "setting": "Normal plasma pool [1]; spiked at 650.00 mg/dL", "value": 27.40, "unit": "s"}, {"measurement": "APTT result", "setting": "Normal plasma pool [1]; spiked at 780.00 mg/dL", "value": 27.20, "unit": "s"}, {"measurement": "APTT result", "setting": "Normal plasma pool [1]; spiked at 910.00 mg/dL", "value": 26.70, "unit": "s"}, {"measurement": "APTT result", "setting": "Normal plasma pool [1]; spiked at 1040.00 mg/dL", "value": 26.30, "unit": "s"}, {"measurement": "APTT result", "setting": "Normal plasma pool [1]; spiked at 1170.00 mg/dL", "value": 26.20, "unit": "s"}, {"measurement": "APTT result", "setting": "Normal plasma pool [1]; spiked at 1300.00 mg/dL", "value": 25.70, "unit": "s"}, {"measurement": "effect of spiked amount on clotting time of thrombin time (TT) assay", "setting": "pathological plasma pool; increasing concentrations, pathological plasma sample", "value": "systematically shortened"}, {"measurement": "TT result", "setting": "pathological plasma pool; spiked at 130.00 mg/dL", "value": 38.50, "unit": "s"}, {"measurement": "TT result", "setting": "pathological plasma pool; spiked at 260.00 mg/dL", "value": 38.10, "unit": "s"}, {"measurement": "TT result", "setting": "pathological plasma pool; spiked at 390.00 mg/dL", "value": 37.60, "unit": "s"}, {"measurement": "TT result", "setting": "pathological plasma pool; spiked at 520.00 mg/dL", "value": 36.70, "unit": "s"}, {"measurement": "TT result", "setting": "pathological plasma pool; spiked at 650.00 mg/dL", "value": 36.30, "unit": "s"}, {"measurement": "TT result", "setting": "pathological plasma pool; spiked at 780.00 mg/dL", "value": 35.70, "unit": "s"}, {"measurement": "TT result", "setting": "pathological plasma pool; spiked at 910.00 mg/dL", "value": 35.00, "unit": "s"}, {"measurement": "TT result", "setting": "pathological plasma pool; spiked at 1040.00 mg/dL", "value": 34.40, "unit": "s"}, {"measurement": "TT result", "setting": "pathological plasma pool; spiked at 1170.00 mg/dL", "value": 33.60, "unit": "s"}, {"measurement": "TT result", "setting": "pathological plasma pool; spiked at 1300.00 mg/dL", "value": 33.40, "unit": "s"}]}
